The subject of this test is BDF1 mice, B16 melanoma ip, median survival T/C. The experiment in a line: NCI In Vivo Anticancer Drug Screen. Data for tumor model B16 Melanoma (intraperitoneal) in B6D2F1 (BDF1) mice. Conditions: endpoint: median survival time, higher = longer survival. As for the experimental part:
The antitumor activity of compounds was measured in mice bearing transplantable tumors. Survival or tumor size were measured and the results are expressed as the measurement made in the treated group (T) divided by the measurement made in the vehicle treated control group (C). The tumor model used in this assay is B16 Melanoma (intraperitoneal) in B6D2F1 (BDF1) mice

Setting [1] is: dose: 12.5 mg/kg/injection, schedule: Q01DX009 (ip), vehicle: saline.

“And” between values parts separate entries of the source, which are not always exact repeats. Equal values may be shown once. Inconclusive results and toxic doses are left out.

On to `COc1cccc2c1C(=O)c1c(O)c3c(c(O)c1C2=O)C[C@@](O)(C(=O)CO)C[C@@H]3OC1CC(N)C(O)C(C)O1` (stereo partly specified), for which the T/C is, setting by setting: (dose: 0.12 mg/kg/injection, schedule: Q01DX009 (ip), vehicle: saline) 163 % of control; (dose: 0.13 mg/kg/injection, schedule: Q01DX009 (ip), vehicle: water) 202 % of control; (dose: 0.25 mg/kg/injection, schedule: Q01DX009 (ip), vehicle: water) 181 % of control and 202 % of control and 266 % of control; (dose: 0.37 mg/kg/injection, schedule: Q01DX009 (ip), vehicle: saline) 412 % of control; (dose: 0.37 mg/kg/injection, schedule: Q03HX008 (ip), vehicle: saline) 154 % of control and 270 % of control; (dose: 0.47 mg/kg/injection, schedule: Q01DX001 (ip), vehicle: water) 175 % of control. In addition, the T/C is 222 % of control and 260 % of control and 274 % of control (dose: 0.5 mg/kg/injection, schedule: Q01DX009 (ip), vehicle: water); 194 % of control (dose: 0.5 mg/kg/injection, schedule: Q03HX008 (ip), vehicle: saline); 162 % of control (dose: 0.75 mg/kg/injection, schedule: Q01DX001 (ip), vehicle: saline); 154 % of control (dose: 0.75 mg/kg/injection, schedule: Q01DX001 (ip), vehicle: water); 154 % of control and 412 % of control (dose: 0.75 mg/kg/injection, schedule: Q01DX009 (ip), vehicle: saline); 168 % of control (dose: 0.75 mg/kg/injection, schedule: Q03DX001 (ip), vehicle: saline). Moreover, the T/C is, setting by setting: (dose: 0.75 mg/kg/injection, schedule: Q03HX008 (ip), vehicle: saline) 164 % of control and 412 % of control; (dose: 0.75 mg/kg/injection, schedule: Q04DX003 (ip), vehicle: saline) 210 % of control; (dose: 0.94 mg/kg/injection, schedule: Q01DX001 (ip), vehicle: water) 194 % of control and 197 % of control; (dose: 1.0 mg/kg/injection, schedule: Q01DX009 (ip), vehicle: water) 260 % of control and 274 % of control and 339 % of control; (dose: 1.0 mg/kg/injection, schedule: Q03HX008 (ip), vehicle: saline) 169 % of control; (dose: 1.25 mg/kg/injection, schedule: Q01DX001 (ip), vehicle: saline) 210 % of control. For the same compound, the T/C (dose: 1.4 mg/kg/injection, schedule: Q04DX003 (ip), vehicle: saline) is 102 % of control; the T/C (dose: 1.44 mg/kg/injection, schedule: Q04DX003 (ip), vehicle: water) is 158 % of control and 295 % of control; the T/C (dose: 1.5 mg/kg/injection, schedule: Q01DX001 (ip), vehicle: saline) is 100 % of control and 114 % of control; the T/C (dose: 1.5 mg/kg/injection, schedule: Q01DX009 (ip), vehicle: saline) is 164 % of control and 412 % of control; the T/C (dose: 1.5 mg/kg/injection, schedule: Q03DX001 (ip), vehicle: saline) was 412 % of control; the T/C (dose: 1.5 mg/kg/injection, schedule: Q03HX008 (ip), vehicle: saline) was 206 % of control. Moreover, the T/C (dose: 1.5 mg/kg/injection, schedule: Q04DX003 (ip), vehicle: saline) is 152 % of control and 412 % of control; the T/C (dose: 1.88 mg/kg/injection, schedule: Q01DX001 (ip), vehicle: water) is 241 % of control and 308 % of control; the T/C (dose: 1.9 mg/kg/injection, schedule: Q01DX001 (ip), vehicle: water) was 165 % of control; the T/C (dose: 2.0 mg/kg/injection, schedule: Q01DX009 (ip), vehicle: water) is 219 % of control and 275 % of control; the T/C (dose: 2.0 mg/kg/injection, schedule: Q03HX008 (ip), vehicle: saline) was 152 % of control; the T/C (dose: 2.4 mg/kg/injection, schedule: Q04DX003 (ip), vehicle: saline) is 105 % of control. In addition, the T/C was 155 % of control and 233 % of control (dose: 2.4 mg/kg/injection, schedule: Q04DX003 (ip), vehicle: water); 177 % of control (dose: 3.0 mg/kg/injection, schedule: Q03DX001 (ip), vehicle: saline); 162 % of control and 412 % of control (dose: 3.0 mg/kg/injection, schedule: Q04DX003 (ip), vehicle: saline); 214 % of control and 308 % of control (dose: 3.75 mg/kg/injection, schedule: Q01DX001 (ip), vehicle: water); 111 % of control (dose: 3.8 mg/kg/injection, schedule: Q01DX001 (ip), vehicle: water); 184 % of control and 202 % of control (dose: 4.0 mg/kg/injection, schedule: Q04DX003 (ip), vehicle: water). Further, the T/C was 428 % of control (dose: 5.9 mg/kg/injection, schedule: Q04DX003 (ip), vehicle: saline); 308 % of control (dose: 6.0 mg/kg/injection, schedule: Q01DX001 (ip), vehicle: saline); 264 % of control (dose: 6.0 mg/kg/injection, schedule: Q03DX001 (ip), vehicle: saline); 189 % of control (dose: 6.0 mg/kg/injection, schedule: Q04DX003 (ip), vehicle: saline); 118 % of control (dose: 6.67 mg/kg/injection, schedule: Q04DX003 (ip), vehicle: saline); 198 % of control and 321 % of control (dose: 6.67 mg/kg/injection, schedule: Q04DX003 (ip), vehicle: water). For the same compound, the T/C was 165 % of control and 180 % of control (dose: 8.0 mg/kg/injection, schedule: Q04DX003 (ip), vehicle: saline); 103 % of control (dose: 9.0 mg/kg/injection, schedule: Q04DX003 (ip), vehicle: saline); 100 % of control (dose: 12.0 mg/kg/injection, schedule: Q03DX001 (ip), vehicle: saline); 150 % of control and 155 % of control (dose: 13.3 mg/kg/injection, schedule: Q01DX001 (ip), vehicle: saline); 40 % of control (dose: 32.0 mg/kg/injection, schedule: Q01DX001 (ip), vehicle: saline); 116 % of control (dose: 32.0 mg/kg/injection, schedule: Q01DX001 (ip), vehicle: water). Further, the T/C reads like this: (dose: 64.0 mg/kg/injection, schedule: Q01DX001 (ip), vehicle: saline) 25 % of control; (dose: 128.0 mg/kg/injection, schedule: Q01DX001 (ip), vehicle: saline) 20 % of control; (dose: 125.0 micrograms/kg/injection, schedule: Q01DX009 (ip), vehicle: other) 178 % of control; (dose: 250.0 micrograms/kg/injection, schedule: Q01DX009 (ip), vehicle: other) 246 % of control; (dose: 500.0 micrograms/kg/injection, schedule: Q01DX009 (ip), vehicle: other) 379 % of control; (dose: 518.0 micrograms/kg/injection, schedule: Q01DX004 (ip), vehicle: other) 112 % of control. Besides, the T/C is 122 % of control (dose: 864.0 micrograms/kg/injection, schedule: Q01DX004 (ip), vehicle: other); 380 % of control (dose: 1000.0 micrograms/kg/injection, schedule: Q01DX009 (ip), vehicle: other); 382 % of control (dose: 2000.0 micrograms/kg/injection, schedule: Q01DX009 (ip), vehicle: other); 100 % of control and 112 % of control (dose: 4000.0 micrograms/kg/injection, schedule: Q01DX004 (ip), vehicle: other).

Turning to `Cc1cccc(C2=NCCN2)c1C`, the T/C (dose: 5.0 mg/kg/injection, schedule: Q04DX003 (ip), vehicle: saline with Tween-80) is 116 % of control and the T/C (dose: 20.0 mg/kg/injection, schedule: Q04DX003 (ip), vehicle: saline with Tween-80) is 116 % of control.

As for `C/C=C1/CC(C)C(C)(O)C(=O)OCC2CCN3CCC(OC1=O)C23` (stereo unspecified), the T/C was 109 % of control under setting [1]; 109 % of control (dose: 25.0 mg/kg/injection, schedule: Q01DX009 (ip), vehicle: saline); 102 % of control (dose: 50.0 mg/kg/injection, schedule: Q01DX009 (ip), vehicle: saline); 107 % of control (dose: 100.0 mg/kg/injection, schedule: Q01DX009 (ip), vehicle: saline).

As for `Cc1c2c(ccc3ccccc32)c[n+]2ccccc12`, the T/C (dose: 1.56 mg/kg/injection, schedule: Q01DX009 (ip), vehicle: suspension in saline) is 98 % of control; the T/C (dose: 3.12 mg/kg/injection, schedule: Q01DX009 (ip), vehicle: suspension in saline) was 101 % of control; the T/C (dose: 6.25 mg/kg/injection, schedule: Q01DX009 (ip), vehicle: suspension in saline) is 106 % of control; the T/C (dose: 12.5 mg/kg/injection, schedule: Q01DX009 (ip), vehicle: suspension in saline) is 103 % of control.

For `O=NNc1ccccn1`, the T/C by setting is: (dose: 3.12 mg/kg/injection, schedule: Q01DX009 (ip), vehicle: saline) 116 % of control; (dose: 6.25 mg/kg/injection, schedule: Q01DX009 (ip), vehicle: saline) 119 % of control; under setting [1], 156 % of control and 165 % of control.

(Values after PubChem BioAssay AID192 (DTP/NCI, 2004).)
